In US9586966B2, “Piperazino[1,2-a]indol-1-ones and [1,4]diazepino[1,2-a]indol-one” (Hoffmann-La Roche Inc., priority 2013, dated 2017):

How the values were obtained:
[1] = test system: human embryonic stem cell derived neural stem cells (NSCs); experiment: Neural stem cell proliferation assay (neurogenesis assay, ATP levels by CellTiterGlo); assay type: cell-based; conditions: 96 h, concentration at which 150% activity of control (100%) is reached, NSC proliferation, ATP levels after 4 days incubation, dose response 8 μM to 8 nM
Method: Neural Stem Cell Proliferation Assay
Neurogenic properties of small molecules are determined based on the proliferation of human embryonic stem cell derived neural stem cells (NSCs) which were derived via a dual smad inhibition as previously described (Chambers, S. M., et al., Highly efficient neural conversion of human ES and iPS cells by dual inhibition of SMAD signaling, Nature biotechnology, 2009. 27(3): p. 275-80.)
Compounds respond is measured by the increase in cells based on ATP levels (Promega:CellTiterGlo®) after an incubation period of 4 days.
NSCs are thawed and expanded over 3 passages. On the 14th day, NSCs are seeded in Polyornithin/Laminin coated 384 well plates at a cell density of 21′000 cells/cm^2 in a media volume of 38 μl. 4 hours after cell seeding, compound solutions are added at a volume of 2 μl. Stock solutions of the compounds (water, 5% DMSO) are diluted to obtain a dose response (11 points, dilution factor is 2), ranging from 8 μM to 8 nM. Controls are run to consistently determine the neurogenic properties of the cells:
Negative (neutral) control is cell culture Media (final DMSO concentration: 0.25%).
1. cell culture Media+100 ng/ml FGF2 (final DMSO concentration: 0.1%)
2. cell culture Media+20 ng/ml EGF (final DMSO concentration: 0.1%)
3. cell culture Media+100 ng/ml Wnt3a (final DMSO concentration: 0.1%)
After 4 days incubation at 37° C., 5% CO2, the amount of ATP per well is quantified. The ATP concentration is proportional to the cell number. ATP is quantified by using the Promega CellTiterGlo® kit. The CellTiterGlo® reagents contain a cell lysis buffer, a thermo stable luciferase (UltraGlo™ recombinant luciferase), magnesium and luciferin. Luciferin reacts with ATP producing oxyluciferin, AMP and light. The luminescence signal is proportional to the ATP content.
The value of negative (neutral) control is determined for each assay plate by taking the average of 16 negative control wells. The neurogenic compound response is calculated for each compound as (compound/Negative Control)*100.
The values of EC150 from the dose response curve are determined for each test compound. The EC150 is the compound concentration at which 150% activity of control (100%) is reached.

melting point [°C]	SMILES	EC (150% of control) [1] [µM]
221	N#Cc1cc(N2CCOCC2)c2c(c1)cc1n2CCCNC1=O [Example 45, 7-Morpholin-4-yl-1-oxo-2,3,4,5-tetrahydro-[1,4]diazepino[1,2-a]indole-9-carbonitrile]	0.24
404.5	N#Cc1cc(N2CCS(=O)(=O)CC2)c2c(c1)cc1n2CCCNC1=O [Example 43, 7-(1,1-Dioxo-1,4-thiazinan-4-yl)-1-oxo-2,3,4,5-tetrahydro-[1,4]diazepino[1,2-a]indole-9-carbonitrile]	0.98
255	Cc1c2n(c3c(C)cc(C#N)cc13)CCCNC2=O [Example 35, 7,11-Dimethyl-1-oxo-2,3,4,5-tetrahydro-[1,4]diazepino[1,2-a]indole-9-carbonitrile]	3.19
161	Cc1c2n(c3c(CCC(C)C)cc(F)cc13)CCNC2=O [Example 12, 8-Fluoro-10-methyl-6-(3-methyl-butyl)-3,4-dihydro-2H-pyrazino[1,2-a]indol-1-one]	0.07
230	Cc1c2n(c3ccc(F)cc13)CCNC2=O [Example 4, 8-Fluoro-10-methyl-3,4-dihydro-2H-pyrazino[1,2-a]indol-1-one]	0.31

More lines, now with the values behind:

SMILES	melting point [°C]	EC (150% of control) [1] [µM]
Cc1c2n(c3c(N4CCS(=O)(=O)CC4)cc(Cl)cc13)CCNC2=O [Example 17, 8-Chloro-6-(1,1-dioxo-1λ^6-thiomorpholin-4-yl)-10-methyl-3,4-dihydro-2H-pyrazino[1,2-a]indol-1-one]	386	0.011
CC(C)Cc1cc(Cl)cc2cc3n(c12)CCCNC3=O [Example 25, 9-Chloro-7-(2-methylpropyl)-2,3,4,5-tetrahydro-[1,4]diazepino[1,2-a]indol-1-one]	186	1.15
Cc1c2n(c3c(OC(F)(F)F)cc(C#N)cc13)CCNC2=O [Example 30, 10-Methyl-1-oxo-6-(trifluoromethoxy)-3,4-dihydro-2H-pyrazino[1,2-a]indole-8-carbonitrile]	253	0.11
N#Cc1cc(N2CCOCC2)c2c(c1)cc1n2CCNC1=O [Example 46, 6-Morpholin-4-yl-1-oxo-3,4-dihydro-2H-pyrazino[1,2-a]indole-8-carbonitrile]	280	0.04
Cc1cc(C)c2c(c1)cc1n2CCNC1=O [Example 33, 6,8-Dimethyl-3,4-dihydro-2H-pyrazino[1,2-a]indol-1-one]	253	4.9
Cc1c2n(c3c(CC(C)C)cc(Cl)cc13)CCCNC2=O [Example 38, 9-Chloro-11-methyl-7-(2-methylpropyl)-2,3,4,5-tetrahydro-[1,4]diazepino[1,2-a]indol-1-one]	176	0.37
Cc1c2n(c3c(CC(C)C)cc(C#N)cc13)CCCNC2=O [Example 34, 11-Methyl-7-(2-methylpropyl)-1-oxo-2,3,4,5-tetrahydro-[1,4]diazepino[1,2-a]indole-9-carbonitrile]	235	0.13
CC(C)Cc1cc(OC(F)(F)F)cc2cc3n(c12)CCNC3=O [Example 37, 6-(2-Methylpropyl)-8-(trifluoromethoxy)-3,4-dihydro-2H-pyrazino[1,2-a]indol-1-one]	166	0.89
